Test results taken from patent US10758549B2, “Compositions of obeticholic acid and methods of use” (Intercept Pharmaceuticals, Inc., priority 2015, dated 2020).
Read-outs that look alike come from different tables or passages of the source.

Legend:
[1] = Example 10: clinical pharmacology / pharmacokinetics of OCA; format: in vivo, human; details: for Urinary excretion / dose excreted in feces: radiolabeled ([^14C]) obeticholic acid
Protocol: This example describes clinical pharmacology and dosing of obeticholic acid (OCA—including obeticholic acid compositions described herein). […] OCA can be supplied as an oral tablet containing obeticholic acid in a formulation as described herein.
Median Tmax for glyco-OCA and tauro-OCA is 10 hours.
Following an oral administration of 25 mg [^14C]-OCA, about 87% of the dose is excreted in feces through biliary secretion. Less than 3% of the dose is excreted in the urine with no detection of OCA.

[2] = Hepatic impairment study, single dose of 10 mg OCA; format: in vivo, human; details: hepatically-impaired patients
Excerpt: The mean total OCA concentration-time profiles in this study are shown in FIG. 16 and the mean PK parameters (Cmax and AUCt) for total OCA in plasma for normal healthy volunteers and subjects with various categories of hepatic impairment are quantified in Table 27.
Development of the PK model for the physiological changes associated with hepatic impairment used 928 plasma sample concentrations of OCA, glyco-OCA, and tauro-OCA from 32 subjects-8 subjects each with mild, moderate, severe hepatic impairment and normal hepatic function. Subjects were administered a single 10 mg dose of OCA. […] Participants were 90.6% white, 3.1% black, 3.1% Asian, and 3.1% other. Mean Child-Pugh Score was 8.0 (2.0) (Child-Pugh Score: Class A/Mild 5-6 points, Class B/Moderate 7-9 points, Class C/Severe 10-15 points). The percentage of BLQ samples with imputed concentrations was 16.8%, 5.4%, and 9.6% for OCA, glyco-OCA, and tauro-OCA, respectively.

Plasma protein binding = format: in vitro ADME; details: human
[3] = test system: CYP2B6, CYP2C8, CYP2D6, MRP2, MRP3, MRP4, MATE1, and OATP2B1; assay: In vitro studies: expression of metabolizing enzymes and transporters; format: in vitro ADME
[4] = Physiologic pharmacokinetic model of OCA (population PK fit and simulations); set-up: species or system human
Protocol: Plasma levels of OCA and its conjugates were measured in healthy subjects and cirrhotic patients with varying degrees of hepatic impairment. A physiologic pharmacokinetic model for OCA was developed to quantitatively describe the absorption, distribution, metabolism, and excretion of OCA in patients with and without hepatic impairment. The model was based on a published multi-compartment PK model for CDCA, and consisted of systemic, hepatobiliary, and intestinal systems. The model was used to simulate the pathophysiological abnormalities caused by cirrhosis including decreased hepatic uptake, portal-systemic shunting, decreased liver volume, and differences in amino acid conjugation.
This examples describes development of a physiologic PK model to quantitatively describe the absorption, distribution, metabolism, and excretion of OCA. In addition, the model was used to define the effects of hepatic impairment to predict the systemic and liver exposure to OCA in subjects with various degrees of liver impairment relative to healthy subjects with normal liver function. The model was developed based on 3 studies in healthy volunteers and 2 studies in patients with varying degrees of hepatic impairment […].
Data from was used to develop the model in healthy subjects (n=160) and then adjust for hepatic impairment (n=32) using the data from the above Examples. After development, the model was validated with data sourced from healthy subjects and cirrhotic patients.
The data used in model development included subject identifiers, time of dosing and sample collection, plasma drug concentrations (OCA, glyco-OCA, and tauro-OCA), dose amount, disease status (e.g., Child-Pugh score), and meal consumption information. Study participants received standardized meals at specified times during inpatient observation. Gallbladder contraction was assumed to last 90 minutes after the start of a meal. Drug concentrations below the limit of quantification (BLQ) were imputed to half of the lower limit of quantification (LLOQ). Observed and BLQ concentrations of OCA, glyco-OCA, and tauro-OCA associated with samples drawn prior to the first dose were excluded from the analyses.
A number of structural modifications were made to the base CDCA model in order to adapt it for use with OCA. For simplification, a single space was used to represent the gut (small and large intestines). Since OCA is an exogenous molecule, it was assumed that there was no endogenous synthesis and an absorption compartment with a first-order transfer coefficient (Ka) was included to represent the administration and absorption kinetics of an oral OCA dose. Based on steric hindrance by the 6-ethyl group of OCA, no bacterial 7-alpha dehydroxylation biotransformation activity (i.e., CDCA to lithocholic acid) was included in the model. Compartment volumes in the model were fixed to physiological values from the base CDCA model. The OCA model used the physiological flow values for blood, bile and gastrointestinal transit from the original physiologic PK model for CDCA, with the exception of flows from bile duct to gallbladder and from bile duct to gut. The physiological values from the base model led to poor predictions and may not be applicable due to the simplification of the enteral system into a unified gut compartment. The biotransformation and transport rates in the model, being dependent on chemical entity structure, were estimated by fitting the model to the plasma concentration time profiles of OCA, glyco-OCA, and tauro-OCA.
The PK model was first developed using the OCA, glyco-OCA, and tauro-OCA plasma concentration time profiles from healthy volunteers with normal hepatic function. Model parameter estimates related to healthy physiology were then held constant while the PK model was further developed using OCA, glyco-OCA, and tauro-OCA plasma concentration time profiles from patients with hepatic impairment (Child-Pugh scores A, B, and C). […]

[5] = oral, listed as obeticholic acid
[6] = exponent on t10, model estimate
[7] = normal hepatic function, model estimate

## CC[C@H]1[C@@H](O)[C@@H]2[C@H](CC[C@]3(C)[C@@H]([C@H](C)CCC(=O)O)CC[C@@H]23)[C@@]2(C)CC[C@@H](O)C[C@@H]12 [OCA, 3α,7α-dihydroxy-6α-ethyl-5β-cholan-24-oic acid]
[1]; 10 mg OCA
  effect of food on PK: does not have a clinically relevant effect
[1]; 20 mg omeprazole once daily with obeticholic acid 10 mg once daily
  increase in obeticholic acid exposure: less than 1.2 fold
[1]; 5, 10, and 25 mg once daily for 14 days
  systemic exposure versus dose: increase dose proportionally
[1]; human, in vivo, read-out: volume of distribution
  Vd: 613 L
[1]; human, plasma, multiple oral doses of OCA 10 mg once daily, read-out: median time (Tmax) of peak plasma concentrations
  Tmax: ~1.5 h
[1]; human, plasma, oral, read-out: effective half-life (converted)
  half-life: ~24 h
[1]; human, plasma, oral, read-out: median time (tmax) of peak plasma concentrations
  Tmax: ~2 h
[1]; oral
  Urinary excretion: Less than 3%
  dose excreted in feces: about 87%
[1]; [5]
  Urinary excretion: less than 3%
  dose excreted in feces: greater than 85%
[2]
  plasma OCA exposures versus healthy subjects: > 10 fold
Plasma protein binding
  fraction unbound: < 0.01
[3]
  change in expression of CYP2B6, CYP2C8, CYP2D6, MRP2, MRP3, MRP4, MATE1, and OATP2B1: did not cause a significant change
[4]; [6]
  Effect in Mild hepatic impairment in hepatic uptake of OCA and conjugates: −0.132
  Effect in Moderate hepatic impairment in hepatic uptake of OCA and conjugates: −1.86
  Effect in Severe hepatic impairment in hepatic uptake of OCA and conjugates: −2.37
[4]; exponent, model estimate
  Effect of Mild hepatic impairment on OCA tauro-conjugation: 0.00481
  Effect of Moderate hepatic impairment on OCA tauro-conjugation: 1.05
  Effect of Severe hepatic impairment on OCA tauro-conjugation: 1.56
[4]; [7]
  Ka: OCA first order rate constant of oral absorption: 5.32 h⁻¹
  b16: OCA rate of conjugation with glycine: 1.44 h⁻¹
  b18: OCA rate of conjugation with taurine: 0.312 h⁻¹
  kout: Rate of fecal elimination of OCA: 0.612 L/h
  t10: OCA transport rate from liver to sinusoidal space: 1698 h⁻¹
  t34: OCA rate of absorption from gut to portal space: 0.857 h⁻¹
